Measured values published in a melting point compilation (Tetko et al.; mined from patent text by program, amines drawn as free bases though some values may be those of a salt).

melting point [°C] | Structure (SMILES)
56 to 59 | COC(=O)Cc1ccc(OCCNC(=O)C2Cc3ccccc3N2S(=O)(=O)c2ccc(-c3cc(C)ccc3C)cc2)cc1 (configuration not stated)
115 to 117 | COC(=O)CCCCCNC(=O)/C=C/C=C/c1ccccc1[N+](=O)[O-]
> 350 | Cc1cc(-n2cc(C#N)nc2C)cc2ccc(=O)[nH]c12
> 290 | O=Cc1c[nH]c2c1ccc1c3ccccc3[nH]c12
123 | COc1ccc2c(c1)c(OCc1ccccc1)c(C(=O)O)n2-c1ccccc1
246 | O=C1NC(=O)C2(N1)C(=O)N(Cc1ccc(Cl)c(Cl)c1)c1c(F)cccc12 (single isomer, unassigned; (+))
46 to 47 | CCCCC/C(=C\C=C\C(=O)Oc1ccc([N+](=O)[O-])cc1)c1ccc(OC)cc1
146 to 148 | C=CCn1nc(OCC(=O)c2cccs2)c(-c2ccc(F)cc2)c1-c1ccc(S(C)(=O)=O)cc1
88 to 90 | N#Cc1cccnc1Oc1cccc(Cl)c1
77 to 78 | COC(=O)c1ccc(CO)cc1O
126 to 128 | Cn1nc(-c2nc(O)c(Cl)cc2F)c(Cl)c1OC(F)F
110 to 112 | CC(C)Cc1nn(C)c(=O)c2cc(C(O)c3cccc4ccccc34)oc12 (configuration not stated)
92 to 93 | CCCCCCCCCCCCCCCCC(N)C(O)CO (configuration not stated)
110 to 112 | CC(=O)S[C@@H](CCN1C(=O)CCC1=O)C(=O)O
145 to 148 | CSc1sc(-c2ccn(C)n2)c2c1C(=O)C(=CO)C(C)(C)C2
> 250 | NC(=O)Nc1ncc(-c2ccncc2)cn1
136 to 138 | N#CN1C(=O)[C@H]2CC=CC[C@H]2C1=O
152 to 153 | CCCC(=O)n1nc2c(c1NC)c(=O)n(CCC)c(=O)n2Cc1cccc(Cl)c1
133 to 135 | Cc1oc(-c2ccc(C(F)(F)F)cc2)nc1-c1cccc(-c2ccc(O)cc2)c1
90.5 to 92.5 | CCN1C[C@@H](O)[C@H](Sc2ccccc2Cl)C1 (relative stereo)
189 to 192 | O=C(Nc1ccc2[nH]c(C(F)(F)F)nc2c1)NC12CC3CC(CC(C3)C1)C2
134 to 136 | CCOC(=O)Cc1c(CCc2ccc(O)cc2)oc2ccc(C#N)cc12
51 to 53 | CCC1(c2cccc(OCc3ccccc3)c2)COC(C)(C)O1 (configuration not stated)
109 to 112 | CCC(COC)NC(=O)C(Cc1ccc(OCc2ccccc2)cc1)NC(=O)C(CC(C)C)N(C)Cc1ccc(N(C)C)cc1 (configuration not stated)

melting point [°C] | Structure (SMILES)
108 to 110 | CN(C)CCNc1ncc(-c2ccccc2)c(C(=O)N(C)Cc2cc(C(F)(F)F)cc(C(F)(F)F)c2)n1
166 to 167 | CCOCc1nc2c(N)nc3cc(N4CCOC4=O)ccc3c2n1CCCOC(C)C
52 to 54 | CC(=O)Oc1cc(C)cc(C(=O)Cl)c1C
118 | c1ccc(COc2ccc(-n3nnnc3C3CC3)cc2)cc1
205 to 208 | CNC(=O)C1(N2C(=O)c3cccc(NC(C)=O)c3C2=O)CCCCC1
147 to 148 | CC(=O)OCC(N)C(=O)Nn1cccc1 (configuration not stated)
248 to 249 | CN1C(=O)CC(c2ccc(O)cc2)C1C(O)c1ccc(-c2ccccc2)s1 (configuration not stated)
245 | CC(C)(C)C1=NN(c2ccc(C(=O)O)cc2)C(c2ccc([N+](=O)[O-])cc2)C1 (configuration not stated)
225 to 227 | NC(=O)COc1ccc(CN2C(=O)C3(COc4cc5c(cc43)OCCO5)c3ccccc32)cc1 (configuration not stated)
62 to 65 | Cc1nc(N2C[C@H](C)N(Cc3ccc(F)cc3)C2=O)sc1C(=O)NCc1ccc(F)c(F)c1
88 to 92 | CCOC(=O)C(=CNc1nonc1C)C(=O)c1cc(F)c(F)c(F)c1F
> 300 | CC(C)Cn1c(=O)[nH]c(=O)c2nc(-c3ccc(/C=C/C(=O)O)cc3)[nH]c21
133 to 134 | CCOC(=O)c1cc2c(C)cccc2n1CCC(=O)O
105 | CCCCc1ccc(CNC(=O)OC(C)(C)C)c(=O)n1Cc1ccc(-c2ccccc2-c2nnn[nH]2)cc1
203 to 204 | CC(Oc1ccc(C(=O)O)cc1)c1ccccc1OCc1ccccc1 (configuration not stated)
221 to 222 | CS(=O)(=O)c1ccc(-n2nc(C(=O)N3CCOCC3)cc2-c2ccc(-c3ccco3)cc2)cc1F
153 to 155 | COc1ccccc1-c1nc(-c2ccccc2)nc(-c2ccccc2O)n1
193 | Oc1ccc2c(c1)CCCC(c1ccccc1)=C2c1ccc(OCCCCCCCl)cc1
> 250 | COc1ccc(CCNc2nc(O)c(NC(=O)c3ccco3)c(O)n2)cc1
240 to 241 | Cc1ccc(-n2nc(C)c(NC(N)=S)c2C)cc1
180 to 182 | CCOC(=O)c1c(C)[nH]c(-c2ccncc2)c1C
76 to 77 | c1ccc(CSc2cn3ccsc3n2)cc1
194 to 196 | CN1OCC(=Cc2cc(C(C)(C)C)c(O)c(C(C)(C)C)c2)C1=O
132 to 135 | CCCCc1nc2ccccn2c(=O)c1-c1ccc2[nH]ccc2c1

melting point [°C] | Structure (SMILES)
27 to 29 | CCC(=O)OCc1c(C)cc([N+](=O)[O-])c(NC(CC)CC)c1[N+](=O)[O-]
158 | COc1ccc(-c2nc3n(c2-c2ccncc2)CCC3)cc1
172 to 175 | NCCCNC(=O)CCn1cnc2c(=O)[nH]cnc21
225 to 226 | Cc1nc2c(cc1C(=O)NC(=N)N)C(O)CCCC2 (configuration not stated)
251 to 254 | O=C(O)c1ccc2c(ccn2Cc2cccc([N+](=O)[O-])c2)c1
200 | COc1cc(C)c(OC)c(OC)c1-c1csc(NC(=O)c2cc3ccccc3[nH]2)n1
126 to 128 | CS(=O)c1c(N)nc(N)nc1Cl (configuration not stated)
178 to 180 | COCOc1cccc(Cn2nc(C(=O)OC)c3c2-c2ccc(OCc4cncnc4)cc2CC3)c1
268 to 269 | O=C(O)c1cc([N+](=O)[O-])cc2ccc(-c3ccccc3)nc12
211 to 213 | CC(C)OP(=O)(/C=C/CCn1cnc2c(N)nc(N)nc21)OC(C)C
136 to 138 | COc1ccc(Oc2ccc(C(C)=C3SCCCS3=O)cc2)cc1 (configuration not stated)
200 to 205 | COc1cc2ncnc(NC3=CC(=O)C(c4ccccc4)=CC3=O)c2cc1OC
190 to 200 | O=C(O)CC(NS(=O)(=O)c1ccc2ccccc2c1)c1ccccc1O (configuration not stated)
253 to 255 | N#Cc1cnn2c3c(c(C(=O)O)nc12)CCN3C1CCCCC1
213 to 215 | O=C(O)c1nc2c(=O)[nH]c3cc(C(F)(F)F)ccc3n2c1Cn1cnc(Cl)c1Cl
219 to 223 | N#Cc1cc(-c2ccncc2)cnc1Cl
149 to 150 | CCOc1nc(N2CCSCC2)nc(Cl)c1[N+](=O)[O-]
209 to 212 | O=C(O)C1=Cc2cc(-c3cccs3)ccc2OC1C(F)(F)F (configuration not stated)
188 to 189 | N#Cc1ccc(NC2=C(Cl)C(=O)c3ccccc3C2=O)cc1
166 to 167 | CC(C)(C)C(=O)Nc1nc(O)c2cc(C=CCOC3CCCCO3)cnc2n1 (configuration not stated)
65 to 66 | CC(C)(CCCCCC(=O)CCCCCC1(C(=O)O)CC1)C(=O)O
86 to 90 | COc1cc(-c2cnn3c(-c4cccc(NC(=O)CC(C)C)c4)ccnc23)cc(OC)c1OC
260 to 262 | Nc1nccc2[nH]cnc12

Structure (SMILES) | melting point [°C]
CN1CCN(c2ccc(Br)cc2)CC1 | 78 to 80
